In the NIST ThermoML archive (doi:10.1021/je060271a):
“And” between values parts separate entries of the source, which are not always exact repeats. Equal values may be shown once. ± gives the expanded uncertainty stated by the source.

Conditions: 343.16 K, Liquid, Vibrating tube method

Measured: mass density

CCCCCC(=O)OCC(COC(=O)CCCCC)(COC(=O)CCCCC)COC(=O)CCCCC [pentaerythritol tetrahexanoate]
957.6 ± 1.2 kg/m3: 541.9 kPa
957.4 ± 1.2 kg/m3 and 957.3 ± 1.2 kg/m3: 354.4 kPa
957.4 ± 1.2 kg/m3: 356.7 kPa | 357 kPa | 357.2 kPa | 357.5 kPa | 357.9 kPa | 358.6 kPa | 359.5 kPa | 360.3 kPa | 361.6 kPa | 362.9 kPa | 366.8 kPa | 368.5 kPa | 370.4 kPa | 371.6 kPa | 372 kPa | 372.3 kPa | 379.8 kPa | 380.3 kPa | 405.3 kPa | 406 kPa | 406.4 kPa | 406.9 kPa | 411.1 kPa | 411.8 kPa | 415.9 kPa | 416.3 kPa | 421.8 kPa | 423.1 kPa | 498.6 kPa | 513.1 kPa
960.1 ± 1.2 kg/m3: 3846.3 kPa | 3901.2 kPa | 3956.3 kPa
964.8 ± 1.2 kg/m3: 10335 kPa
958.4 ± 1.2 kg/m3: 1635.2 kPa | 1649.9 kPa | 1664.3 kPa | 1682.1 kPa
964.1 ± 1.2 kg/m3: 9203.5 kPa | 9234 kPa | 9300.6 kPa | 9331.6 kPa
959.2 ± 1.2 kg/m3: 2922.7 kPa
966.8 ± 1.2 kg/m3: 12778 kPa
964.2 ± 1.2 kg/m3: 9270 kPa
965.5 ± 1.2 kg/m3: 10856 kPa
964.9 ± 1.2 kg/m3: 10117 kPa | 10225 kPa | 10259 kPa | 10294 kPa | 10481 kPa | 10516 kPa
965.4 ± 1.2 kg/m3: 10893 kPa
957.3 ± 1.2 kg/m3: 355.3 kPa | 355.8 kPa | 356.3 kPa | 360.5 kPa | 360.7 kPa | 361.4 kPa | 361.9 kPa | 366.4 kPa | 367.3 kPa | 367.6 kPa | 368.1 kPa | 370.8 kPa | 406.2 kPa | 410.7 kPa | 416.6 kPa | 417.7 kPa
957.3 ± 1.2 kg/m3 and 957.4 ± 1.2 kg/m3: 365.9 kPa
965.2 ± 1.2 kg/m3: 10593 kPa | 10705 kPa | 10741 kPa | 10777 kPa | 10820 kPa
966.4 ± 1.2 kg/m3: 12411 kPa | 12434 kPa | 12484 kPa
965.3 ± 1.2 kg/m3: 10929 kPa | 10972 kPa
966.6 ± 1.2 kg/m3: 12559 kPa | 12722 kPa | 12741 kPa | 12793 kPa
964.4 ± 1.2 kg/m3: 9596.7 kPa | 9628.1 kPa | 9666.2 kPa | 9698 kPa | 9736.5 kPa
957.2 ± 1.2 kg/m3: 417.3 kPa
964.6 ± 1.2 kg/m3: 9871.9 kPa
959.4 ± 1.2 kg/m3: 2945.6 kPa
958 ± 1.2 kg/m3: 1386.7 kPa
958.1 ± 1.2 kg/m3: 1402 kPa
965 ± 1.2 kg/m3: 10192 kPa | 10369 kPa | 10404 kPa | 10446 kPa | 10551 kPa
966.5 ± 1.2 kg/m3: 12457 kPa | 12507 kPa | 12530 kPa | 12577 kPa | 12604 kPa | 12626 kPa | 12675 kPa | 12697 kPa
958.2 ± 1.2 kg/m3: 1360.7 kPa | 1373.7 kPa | 1499.4 kPa | 1543.9 kPa
966.7 ± 1.2 kg/m3: 12653 kPa | 12760 kPa
965.1 ± 1.2 kg/m3: 10628 kPa | 10670 kPa
957.5 ± 1.2 kg/m3: 362.3 kPa | 362.6 kPa | 368 kPa | 371.3 kPa | 379.4 kPa | 412.5 kPa | 422.4 kPa | 422.9 kPa | 495.2 kPa | 501.8 kPa | 506.1 kPa | 509.6 kPa | 517.4 kPa | 521.2 kPa | 598.9 kPa
960.2 ± 1.2 kg/m3: 3981.7 kPa
964.7 ± 1.2 kg/m3: 9938.9 kPa | 10011 kPa | 10044 kPa | 10084 kPa | 10151 kPa
960 ± 1.2 kg/m3: 3871.7 kPa | 3926.1 kPa
958.3 ± 1.2 kg/m3: 1527.2 kPa
964.5 ± 1.2 kg/m3: 9768.5 kPa | 9839 kPa | 9905.6 kPa | 9971.6 kPa
